# Publication PMC12123601, “Light-Induced, Lysine-Targeting Irreversible Covalent Inhibition of the Human Oxygen Sensing Hydroxylase Factor Inhibiting HIF (FIH)” (Journal of the American Chemical Society, 2025)
# Test system: EGLN3 mRNA level in Hep3B cells
# Experiment: qRT-PCR of FIH-dependent HIF target gene EGLN3 in Hep3B cells
# Assay type: cell-based
# Details: for Upregulation of EGLN3 expression: absence of irradiation
# Protocol: 5 […] sustainably engages with FIH and regulates the expression of FIH-dependent HIF target gene EGLN3 in Hep3B cells. (A) The CETSA assay was carried out with Hep3B cells grown in the presence of NBA-ZG-2291 (50 μM) for 12–48 h after 30 min of light activation (365 nm, 16 W). The intensity of the bands for grayscale analysis was referenced to the starting temperature (37 °C). α-Actinin was the sample loading control. n = 2; mean ± SD. […] (E) Correlation heatmap of the NBA-ZG-2291-treated group and the siFIH group by RNA-sequencing analysis. […] The relative fold change with respect to DMSO treated sample is shown (with normalization to HPRT gene levels). Mean ± SEM; n = 3. (G) TG level of NBA-ZG-2291-treated 3T3-L1-derived adipocytes. Mean ± SEM; n = 3. (H) Representative Oil Red O-stained images of the control, ZG-2291-treated, and NBA-ZG-2291-treated 3T3-L1-derived adipocytes. Scale Bar, 30 μm. P values were analyzed by two-way ANOVA comparing with the vehicle/control group (*, P < 0.05; **, P < 0.01; ***, P < 0.001, ****, P < 0.0001). See Methods (Quantitative PCR Analysis of Gene Expression) for assay details. TEXT PRINTED IN THE PICTURE: (A) no label printed: FIH: ΔTm (°C): 8.87 (Incubation time: 12 h); FIH: ΔTm (°C): 9.28 (Incubation time: 24 h); FIH: ΔTm (°C): 8.86 (Incubation time: 48 h); α-actinin: ΔTm (°C): 0.30 (Incubation time: 12 h); α-actinin: ΔTm (°C): -0.03 (Incubation time: 24 h); α-actinin: ΔTm (°C): -0.45 (Incubation time: 48 h) DOUBTS OF THE COPYIST ABOUT THIS PICTURE: Panel A: the picture prints no substance label with the ΔTm tables, so the label is left empty
# The Egl-9 family hypoxia-inducible factor 3 gene (EGLN3, PHD3) is a HIF target gene, expression of which is negatively regulated by FIH catalysis, , potentially in a context-dependent manner. We therefore investigated the effect of the light-induced covalent inhibitor NBA-ZG-2291 on EGLN3 expression levels in Hep3B cells using ZG-2291 as a positive inhibition control. […] At a concentration of 10 μM, NBA-ZG-2291 increased EGLN3 expression by ∼2.5-fold with irradiation.
# We also compared the time-dependent regulation of NBA-ZG-2291 on the HIF pathway with that of ZG-2291. […] This may result from the limited action time of the reversible inhibitor, perhaps due to its metabolism. The overall results provide strong evidence that the light-induced, lysine-targeting irreversible covalent inhibitor NBA-ZG-2291 can effectively and sustainably engage FIH, leading to the upregulation of FIH-dependent HIF target gene expression.
compound,measurement,setting,value
O=C(O)CNC(=O)c1ncc(-c2cc(-c3ccc(CO)c([N+](=O)[O-])c3)no2)cc1O [NBA-ZG-2291],Upregulation of EGLN3,"0.3 μM, after 30 min light activation (365 nm, 16 W)",1.35 fold
same,Upregulation of EGLN3 expression,10 μM,did not result in significant upregulation
same,Increase of EGLN3 expression,"10 μM, with irradiation",~2.5 fold
same,Upregulation of EGLN3 expression,20 μM,very weak upregulation
same,"Increase of EGLN3 expression, time course","maintained from 6 to 48 h, after 30 min irradiation",2.5 fold
